In US11911417B2, “Nerve growth promoter and method for producing same, internal preparation, medium additive, cell dilution additive, medium, cell dilution, antioxidant and method for producing same, external preparation, and wound treatment agent and method for producing same” (LAIMU CORPORATION, priority 2016, dated 2024):

Assay: radical trapping test (ABTS radical cations)
Details: 20 μM, 5 to 120 minutes, FIG. 5
Protocol: The antioxidant 1 (freeze-dried powder of protease degradation product) produced was evaluated for the radical trapping activity against ABTS radical cations (unnatural model radical), according to the spectrophotometric method described in Biol. Pharm. Bull., 29, 766-771 (2006). Specifically, the antioxidant 1 was added to 3 mL of a reaction solution containing ABTS radical cations to be a final concentration of 300 μg/mL, and at the time after 5 minutes, 15 minutes, 30 minutes, 60 minutes and 120 minutes, the residual ratio of the ABTS radical cations was determined. For comparison, a system added with ascorbic acid or arbutin in an amount of 20 μM each in place of the antioxidant 1, and a system added with water in the same amount as that of the antioxidant 1 (control) were tested in the same manner.

| Structure (SMILES) | course of the radical residual ratio with the lapse of time |
| --- | --- |
| OC[C@H]1O[C@@H](Oc2ccc(O)cc2)[C@H](O)[C@@H](O)[C@@H]1O [arbutin] | did not change after further lapse of time |
| O=C1O[C@H]([C@@H](O)CO)C(O)=C1O [ascorbic acid] | did not change after further lapse of time |
